Assay results reported in ChEMBL document CHEMBL3507680, “University of Dundee, Gates Library screen for HepG2 cell viability”.

Assay: Human HepG2 cell viability assay in 384 well format
Format: toxicity, cell-based
Design: dose 125 nL, time 70.5 hour; concentration not given beside the values
Settings: HepG2 cells, read-out: Inhibition
In the case of `O=C([C@@H]1COC[C@H]2CN(CC3CC3)C[C@H]21)N1CCC(F)CC1`, the cytotoxicity at 70.5 h is reported as 32.5%.
Molecule `Cc1ccc(NC2CCN(C(=O)c3cccc4ncccc34)CC2)nn1` has a cytotoxicity at 70.5 h of 1.63%.
Work on `COc1cccc(CN2CCN(C(=O)CN3CCOCC3)CC2)n1` yielded a cytotoxicity at 70.5 h of 0.577%.
With `O=S(=O)(Cc1ccccc1F)NCCCN1CCCCC1` the cytotoxicity at 70.5 h was -1.2%.
`Cc1cnn(CCC(=O)N2CCN(c3ccc(C#N)cn3)CC2)c1` gave a cytotoxicity at 70.5 h of -3.08%.
With `CCCC1(CNCc2ncc[nH]2)CCC1` the cytotoxicity at 70.5 h was -8.95%.
Molecule `O=C(NCCCn1cccn1)C1COCC(=O)N1Cc1ccccc1` (stereo unspecified) has a cytotoxicity at 70.5 h of -0.531%.
`Cc1nn(C)cc1S(=O)(=O)N[C@@H]1CCC[C@@H](N2CCCC2)[C@@H]1O` gave a cytotoxicity at 70.5 h of -9.32%.
With `CC(C)NC(=O)C1CN(C(N)=O)Cc2ccnn2C1` (stereo unspecified) the cytotoxicity at 70.5 h was -17.9%.
`O=C(CN1CCN(c2nccs2)CC1)Nc1cccnc1` gave a cytotoxicity at 70.5 h of -7.83%.
With `Cc1nc(CN2CCN(C(=O)C(c3ccccc3C)N(C)C)CC2)no1` (stereo unspecified) the cytotoxicity at 70.5 h was -7.12%.
`Cc1nsc(NC(=O)N2CCc3sccc3C2)n1` gave a cytotoxicity at 70.5 h of -7.28%.
Molecule `Cc1cnn(C2CCCN(C(=O)Cc3c(C)nn(C)c3C)C2)c1` (stereo unspecified) has a cytotoxicity at 70.5 h of 0.294%.
For `Cn1ccnc1CNC(=O)c1cncc(C2CCNCC2)n1`, the cytotoxicity at 70.5 h was -5.18%.
In the case of `CCc1ncncc1C(=O)Nc1ccc2ccn(CCN(C)C)c2c1`, the cytotoxicity at 70.5 h is reported as -9.77%.
For `c1cnn(CC2CN(c3ncnc4c3CCC4)CCO2)c1` (stereo unspecified), the cytotoxicity at 70.5 h was -9.89%.
With `CS(=O)(=O)N1CCN(C(=O)c2[nH]c3ccc(Cl)cc3c2Cl)CC1` the cytotoxicity at 70.5 h was -6.15%.
With `CN(CC(=O)N1CCN(c2ncccn2)CC1)c1ccc(Cl)cn1` the cytotoxicity at 70.5 h was -7.47%.
In the case of `COCCNc1cc(C(=O)N2CCOCC2)nc(C)n1`, the cytotoxicity at 70.5 h is reported as 0.483%.
With `CC(=O)N1CCN(c2ccnc3c(F)cc(Br)cc23)CC1` the cytotoxicity at 70.5 h was -1.55%.
Work on `COc1ccc(OCC(=O)NC(C)c2ccc(F)cc2)c(C(=O)O)c1` (stereo unspecified) yielded a cytotoxicity at 70.5 h of -7%.
With `O=C(Nc1cccnc1)NC1CCN(c2ccccc2OC(F)F)C1` (stereo unspecified) the cytotoxicity at 70.5 h was -3.6%.
With `COc1cccc(OCC2CCCN(C(=O)c3ccc(N)nc3)C2)c1` (stereo unspecified) the cytotoxicity at 70.5 h was -11.6%.
Work on `O=C(CC1COCCN1)N1CCC2(CCc3ccccc32)CC1` (stereo unspecified) yielded a cytotoxicity at 70.5 h of 8.47%.
With `Cc1oc(C)c(C(=O)N2CCCN(Cc3cscn3)CC2)c1C` the cytotoxicity at 70.5 h was 5.51%.
Work on `CCN(CC)Cc1cc(C(=O)N2CCCC(O)(CO)C2)c(C)o1` (stereo unspecified) yielded a cytotoxicity at 70.5 h of -7.27%.
`c1cnc(N2CCC(c3n[nH]c4ncccc34)C2)nc1` (stereo unspecified) gave a cytotoxicity at 70.5 h of -7.93%.
Work on `CCCc1cc(NCCC2CCCOC2)n2nccc2n1` (stereo unspecified) yielded a cytotoxicity at 70.5 h of 14.3%.
Molecule `NC(=O)CCN1C(=O)CC(Cc2ccc(F)cc2)C1=O` (stereo unspecified) has a cytotoxicity at 70.5 h of -11.2%.
In the case of `c1cc2n(n1)CC(CNCc1ccc(OC3CCCCC3)nc1)CN2` (stereo unspecified), the cytotoxicity at 70.5 h is reported as 0.985%.
`c1cnnc(N2CCCC(NCc3ccc(-n4ccnc4)cc3)C2)c1` (stereo unspecified) showed a cytotoxicity at 70.5 h of -10.5%.
Molecule `CC(C)NC(=O)[C@]12COC[C@H]1CN(Cc1cnn(C)c1)C2` has a cytotoxicity at 70.5 h of -4.74%.
For `CC[C@@H]1N(Cc2nccs2)CCC[C@]12CCC(=O)N2CCOC`, the cytotoxicity at 70.5 h was -2.16%.
For `Cc1cccc(CN2CCCC3(Cc4ccccc4CNC3=O)C2)n1` (stereo unspecified), the cytotoxicity at 70.5 h was -5.77%.
For `CN1CCN(Cc2cnc3n2CCN(C(=O)c2cscn2)C3)CC1`, the cytotoxicity at 70.5 h was -3%.
In the case of `Cc1noc(C)c1CN1CC[C@H]2C[C@@H](c3ccncn3)O[C@@H]2C1`, the cytotoxicity at 70.5 h is reported as -10.7%.
Molecule `CCC1CN(C(=O)c2ncccc2O)CCC(=O)N1Cc1ccccc1` (stereo unspecified) has a cytotoxicity at 70.5 h of -0.966%.
For `CCNC(=O)NC(=O)CNC1(c2noc(C)n2)CCCC1`, the cytotoxicity at 70.5 h was 16.6%.
Work on `CC(C)n1[nH]c(=O)c2c1NC(=O)CC2c1ccc(S(C)(=O)=O)cc1` (stereo unspecified) yielded a cytotoxicity at 70.5 h of -17.1%.
In the case of `CCOc1ccc(Br)cc1C1CCCN1` (stereo unspecified), the cytotoxicity at 70.5 h is reported as 18.6%.
For `CC(C)(C)C(=O)N1CCCN(c2ncnc3nc(N)ccc23)CC1`, the cytotoxicity at 70.5 h was -1.35%.
`CC(C)N(CCNC(=O)N1CCCC(N(C)C)C1)C1CC1` (stereo unspecified) gave a cytotoxicity at 70.5 h of 13.5%.
Work on `Cc1cnc(C(=O)N2CCCN(Cc3csc(C)n3)CC2)cn1` yielded a cytotoxicity at 70.5 h of -5.72%.
`c1cc2c(cc1Cn1cc(C3CCOC3)nn1)OCO2` (stereo unspecified) showed a cytotoxicity at 70.5 h of -16.1%.
`CC(C)Oc1ncccc1CNC(=O)N1CCSCC1` gave a cytotoxicity at 70.5 h of -2.87%.
Molecule `Cc1ccc(CNCc2ccc(N3CCC(CO)CC3)nc2)c(C)c1` has a cytotoxicity at 70.5 h of -5.56%.
